# Test results reported in ChEMBL document CHEMBL5390254, “Discovery and Optimization of Novel hDHODH Inhibitors for the Treatment of Inflammatory Bowel Disease” (J Med Chem, 2023).
# Calls of active or inactive are those of the source. The rule behind the calls is not given here.
# How the values were obtained:
# [1] = 1-octanol/water partition coefficient, logP of the compound at 2 mg by UPLC analysis; format: physicochemical
# Mus musculus [2] = experiment: Anti-inflammatory activity against DSS-induced acute ulcerative colitis in C57BL/6 mouse model assessed as decrease in colon length shortening at 100 mg/kg, po QD for 6 days (Rvb= 5.5cm); format: functional; conditions: time 6 day
# [3] = Acute toxicity in BALB/c mouse assessed as changes in hemoglobin level in blood at 1000 mg/kg,po and measured after 14 days by hematology test; format: organism-based; conditions: in vivo, 336 h, time 14 day
# [4] = Acute toxicity in BALB/c mouse assessed as death at 1000 mg/kg,po and measured for 14 days; format: organism-based; conditions: in vivo, 336 h, time 14 day
# [5] = Acute toxicity in BALB/c mouse assessed as tissue damage in heart at 1000 mg/kg,po and measured after 14 days by hematoxylin and eosin staining based microscopy; format: organism-based; conditions: in vivo, 336 h, time 14 day
# [6] = Acute toxicity in BALB/c mouse assessed as tissue damage in spleen at 1000 mg/kg,po and measured after 14 days by hematoxylin and eosin staining based microscopy; format: organism-based; conditions: in vivo, 336 h, time 14 day
# [7] = Metabolic stability in human liver microsomes assessed as intrinsic clearance at 3 uM incubated upto 90 mins in presence of NADPH by LC-MS/MS analysis; format: ADME, Microsome; conditions: read-out: CLH
# [8] = Acute toxicity in BALB/c mouse assessed as changes in CK level in serum at 1000 mg/kg,po and measured after 14 days by Biochemistry analysis; format: organism-based; conditions: in vivo, 336 h, time 14 day
# [9] = Acute toxicity in BALB/c mouse assessed as changes in neutrophil level in blood at 1000 mg/kg,po and measured after 14 days by hematology test; format: organism-based; conditions: in vivo, 336 h, time 14 day
# [10] = Acute toxicity in BALB/c mouse assessed as changes in urea level in serum at 1000 mg/kg,po and measured after 14 days by Biochemistry analysis; format: organism-based; conditions: in vivo, 336 h, time 14 day
# [11] = Metabolic stability in rat liver microsomes assessed as intrinsic clearance at 3 uM incubated upto 90 mins in presence of NADPH by LC-MS/MS analysis; format: ADME, Microsome; conditions: read-out: CLH
# [12] = Acute toxicity in BALB/c mouse assessed as changes in ALT level in serum at 1000 mg/kg,po and measured after 14 days by Biochemistry analysis; format: organism-based; conditions: in vivo, 336 h, time 14 day
# [13] = Acute toxicity in BALB/c mouse assessed as changes in lymph level in blood at 1000 mg/kg,po and measured after 14 days by hematology test; format: organism-based; conditions: in vivo, 336 h, time 14 day
# [14] = Acute toxicity in BALB/c mouse assessed as changes in TP level in serum at 1000 mg/kg,po and measured after 14 days by Biochemistry analysis; format: organism-based; conditions: in vivo, 336 h, time 14 day
# [15] = Acute toxicity in BALB/c mouse assessed as changes in general health status at 1000 mg/kg,po and measured for 14 days; format: organism-based; conditions: in vivo, 336 h, time 14 day
# [16] = Acute toxicity in BALB/c mouse assessed as changes in RBC level in blood at 1000 mg/kg,po and measured after 14 days by hematology test; format: organism-based, Erythrocyte; conditions: in vivo, 336 h, time 14 day
# [17] = Acute toxicity in BALB/c mouse assessed as changes in hematocrit level in blood at 1000 mg/kg,po and measured after 14 days by hematology test; format: organism-based; conditions: in vivo, 336 h, time 14 day
# [18] = Acute toxicity in BALB/c mouse assessed as changes in ALB level in serum at 1000 mg/kg,po and measured after 14 days by Biochemistry analysis; format: organism-based; conditions: in vivo, 336 h, time 14 day
# Mus musculus [19] = experiment: Anti-inflammatory activity against DSS-induced acute ulcerative colitis in C57BL/6 mouse model assessed as decrease in IL-1beta production in colon at 100 mg/kg, po QD for 6 days by ELISA; format: functional, organism-based; conditions: time 6.0 day
# [20] = Acute toxicity in BALB/c mouse assessed as changes in CREA level in serum at 1000 mg/kg,po and measured after 14 days by Biochemistry analysis; format: organism-based; conditions: in vivo, 336 h, time 14 day
# Mus musculus [21] = experiment: Anti-inflammatory activity against DSS-induced acute ulcerative colitis in C57BL/6 mouse model assessed as decrease in IL-17 mRNA expression level in colon at 100 mg/kg, po QD for 6 days by RT-PCR analysis; format: functional, organism-based; conditions: time 6.0 day
# Mus musculus [22] = experiment: Anti-inflammatory activity against DSS-induced acute ulcerative colitis in C57BL/6 mouse model assessed as decrease in IL-1beta mRNA expression level in colon at 100 mg/kg, po QD for 6 days by RT-PCR analysis; format: functional, organism-based; conditions: time 6.0 day
# [23] = Acute toxicity in BALB/c mouse assessed as tissue damage in liver at 1000 mg/kg,po and measured after 14 days by hematoxylin and eosin staining based microscopy; format: organism-based; conditions: in vivo, 336 h, time 14 day
# Mus musculus [24] = experiment: Anti-inflammatory activity against DSS-induced acute ulcerative colitis in C57BL/6 mouse model assessed as decrease in DAI score at 100 mg/kg, po QD for 6 days; format: functional, organism-based; conditions: time 6.0 day
# Mus musculus [25] = experiment: Anti-inflammatory activity against DSS-induced acute ulcerative colitis in C57BL/6 mouse model assessed as decrease in colon tissue damage score at 100 mg/kg, po QD for 6 days relative to DSS group; format: functional; design: scale not given: the % may be the effect or the level left; conditions: time 6 day
# Mus musculus [26] = experiment: Anti-inflammatory activity against DSS-induced acute ulcerative colitis in C57BL/6 mouse model assessed as decrease in IL-6 production in colon at 100 mg/kg, po QD for 6 days by ELISA; format: functional, organism-based; conditions: time 6.0 day
# Mus musculus [27] = experiment: Anti-inflammatory activity against DSS-induced acute ulcerative colitis in C57BL/6 mouse model assessed as decrease in body weight loss at 100 mg/kg, po QD for 6 days (Rvb= 25.6%); format: functional; design: scale not given: the % may be the effect or the level left; conditions: time 6 day
# [28] = Acute toxicity in BALB/c mouse assessed as changes in LDH level in serum at 1000 mg/kg,po and measured after 14 days by Biochemistry analysis; format: organism-based; conditions: in vivo, 336 h, time 14 day
# [29] = Acute toxicity in BALB/c mouse assessed as changes in ALP level in serum at 1000 mg/kg,po and measured after 14 days by Biochemistry analysis; format: organism-based; conditions: in vivo, 336 h, time 14 day
# [30] = Acute toxicity in BALB/c mouse assessed as changes in platelet count in blood at 1000 mg/kg,po and measured after 14 days by hematology test; format: organism-based; conditions: in vivo, 336 h, time 14 day
# [31] = Acute toxicity in BALB/c mouse assessed as tissue damage in lung at 1000 mg/kg,po and measured after 14 days by hematoxylin and eosin staining based microscopy; format: organism-based; conditions: in vivo, 336 h, time 14 day
# [32] = Acute toxicity in BALB/c mouse assessed as changes in AST level in serum at 1000 mg/kg,po and measured after 14 days by Biochemistry analysis; format: organism-based; conditions: in vivo, 336 h, time 14 day
# Mus musculus [33] = experiment: Anti-inflammatory activity against DSS-induced acute ulcerative colitis in C57BL/6 mouse model assessed as decrease in IL-6 mRNA expression level in colon at 100 mg/kg, po QD for 6 days by RT-PCR analysis; format: functional, organism-based; conditions: time 6.0 day
# [34] = Metabolic stability in rat liver microsomes assessed as half life at 3 uM incubated upto 90 mins in presence of NADPH by LC-MS/MS analysis; format: ADME, Microsome
# Mus musculus [35] = experiment: Anti-inflammatory activity against DSS-induced acute ulcerative colitis in C57BL/6 mouse model assessed as decrease in IL-17 production in colon at 100 mg/kg, po QD for 6 days by ELISA; format: functional, organism-based; conditions: time 6.0 day
# [36] = Acute toxicity in BALB/c mouse assessed as tissue damage in kidney at 1000 mg/kg,po and measured after 14 days by hematoxylin and eosin staining based microscopy; format: organism-based; conditions: in vivo, 336 h, time 14 day
# [37] = Acute toxicity in BALB/c mouse assessed as changes in WBC level in blood at 1000 mg/kg,po and measured after 14 days by hematology test; format: organism-based; conditions: in vivo, 336 h, time 14 day
# [38] = Metabolic stability in human liver microsomes assessed as half life at 3 uM incubated upto 90 mins in presence of NADPH by LC-MS/MS analysis; format: ADME, Microsome
# [39] = Metabolic stability in mouse liver microsomes assessed as intrinsic clearance at 3 uM incubated upto 90 mins in presence of NADPH by LC-MS/MS analysis; format: ADME, Microsome; conditions: read-out: CLH
# [40] = Acute toxicity in po dosed BALB/c mouse assessed as maximum tolerate dose; format: organism-based; conditions: in vivo
# [41] = Acute toxicity in BALB/c mouse assessed as changes in UA level in serum at 1000 mg/kg,po and measured after 14 days by Biochemistry analysis; format: organism-based; conditions: in vivo, 336 h, time 14 day
# [42] = Acute toxicity in BALB/c mouse assessed as body weight loss at 1000 mg/kg,po and measured for 14 days; format: organism-based; conditions: in vivo, 336 h, time 14 day
# [43] = Metabolic stability in mouse liver microsomes assessed as half life at 3 uM incubated upto 90 mins in presence of NADPH by LC-MS/MS analysis; format: ADME, Microsome
# [44] = target: Dihydroorotate dehydrogenase (quinone), mitochondrial (Homo sapiens) (UniProt Q02127); conditions: dose 10.0 µM
# Sequence of Dihydroorotate dehydrogenase (quinone), mitochondrial (Homo sapiens) (Q02127 whole entry): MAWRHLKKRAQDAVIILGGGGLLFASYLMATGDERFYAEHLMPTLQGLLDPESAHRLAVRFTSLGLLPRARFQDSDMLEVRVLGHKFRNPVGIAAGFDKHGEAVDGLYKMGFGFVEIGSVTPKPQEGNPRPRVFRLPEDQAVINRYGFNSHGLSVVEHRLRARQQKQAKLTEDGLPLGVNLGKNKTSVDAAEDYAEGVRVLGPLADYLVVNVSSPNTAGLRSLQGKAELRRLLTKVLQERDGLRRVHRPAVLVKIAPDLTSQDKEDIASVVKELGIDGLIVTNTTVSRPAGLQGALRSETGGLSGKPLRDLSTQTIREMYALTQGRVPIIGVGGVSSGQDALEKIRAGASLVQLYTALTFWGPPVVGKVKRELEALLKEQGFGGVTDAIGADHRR
# Description: Binding affinity to human DHODH assessed as change in melting temperature at 10 uM by thermal shift based DSF assay
# [45] = Terminal half life in Han Wistar rat at 5 mg/kg,po and measured upto 24 hrs by LC-MS analysis; format: ADME, organism-based; conditions: in vivo, read-out: beta t1/2 (converted)
# [46] = Apparent oral clearance in Han Wistar rat at 5 mg/kg,po and measured upto 24 hrs by LC-MS analysis; format: ADME, organism-based; conditions: in vivo
# [47] = Apparent volume of distribution during terminal phase in Sprague-Dawley rat at 15 mg/kg, po and measured upto 48 hrs by LC-MS/MS analysis; format: ADME, organism-based; conditions: in vivo, read-out: Vz/F
# [48] = Oral bioavailability in Han Wistar rat at 5 mg/kg and measured upto 24 hrs by LC-MS analysis; format: ADME, organism-based; conditions: in vivo
compound,measurement,setting,value
Fc1cccc(F)c1Cn1cc(-c2ncc(C3CC3)cn2)c2cccnc21,logP,[1],5.5
Fc1cccc(Cl)c1Cn1cc(-c2ncc(C3CC3)cn2)c2cccnc21,Activity,Mus musculus [2],6.1 cm
same,Activity,[3],Non-Toxic
same,Activity,[4],Non-Toxic
same,Activity,[5],Non-Toxic
same,Activity,[6],Non-Toxic
same,CLint scaled at 3 µM,[7],190 mL/min/kg
same,Activity,[8],Non-Toxic
same,logP,[1],5.3
same,Activity,[9],Non-Toxic
same,Activity,[10],Non-Toxic
same,CLint scaled at 3 µM,[11],150 mL/min/kg
same,Activity,[12],Non-Toxic
same,Activity,[13],Non-Toxic
same,Activity,[14],Non-Toxic
same,Activity,[15],Non-Toxic
same,Activity,[16],Non-Toxic
same,Activity,[17],Non-Toxic
same,Activity,[18],Non-Toxic
same,Activity,Mus musculus [19],Active
same,Activity,[20],Non-Toxic
same,Activity,Mus musculus [21],Active
same,Activity,Mus musculus [22],Active
same,Activity,[23],Non-Toxic
same,Activity,Mus musculus [24],Active
same,Activity,Mus musculus [25],27.27%
same,Activity,Mus musculus [26],Active
same,Activity,Mus musculus [27],17.6%
same,Activity,[28],Non-Toxic
same,Activity,[29],Non-Toxic
same,Activity,[30],Non-Toxic
same,Activity,[31],Non-Toxic
same,Activity,[32],Non-Toxic
same,Activity,Mus musculus [33],Active
same,half-life at 3 µM,[34],16.5 min
same,Activity,Mus musculus [35],Active
same,Activity,[36],Non-Toxic
same,Activity,[37],Non-Toxic
same,half-life at 3 µM,[38],9.2 min
same,CLint scaled at 3 µM,[39],693 mL/min/kg
same,MTD,[40],1000 mg/kg
same,Activity,[41],Non-Toxic
same,Activity,[42],Non-Toxic
same,half-life at 3 µM,[43],7.9 min
COc1cccc(-c2ccc(NC(=O)C3=C(C(=O)O)CCC3)c(F)c2)c1 [VIDOFLUDIMUS],Activity,Mus musculus [2],6.4 cm
same,ΔTm,[44],9.8 °C
same,half-life,[45],546 min
same,Activity,Mus musculus [19],Active
same,Activity,Mus musculus [21],Active
same,Activity,Mus musculus [22],Active
same,CL/F,[46],220 mL/min/kg
same,Activity,Mus musculus [25],22.73%
same,Activity,Mus musculus [26],Active
same,Vd/F,[47],0.02 L/kg
same,Activity,Mus musculus [33],Active
same,Activity,Mus musculus [35],Active
same,bioavailability,[48],73.8%
